According to patent US20150017092A1, “DEVICES AND METHODS FOR DETERMINING SENSITIVITY TO RADIATION” (The Regents of the University of California, priority 2012, published 2015):

Columns and labels:
[1] = target: T1, ataxia telangiectasia mutated (ATM) kinase (Homo sapiens, UniProt Q13315); experiment: Inhibition of ATM measured by Western blot of P53-S15p; type: cell-based; conditions: 10 μM inhibitor, MCF10A
T1 construct: endogenous in cells; host or cells: MCF10A (human mammary epithelial cells, ATCC)

MCF10A = experiment: 53BP1 radiation induced foci (RIF) time response in MCF10A exposed to X-rays under ATM inhibition, fitted with Eq. 1; type: cell-based, human; conditions: for T1/2_1 (RIF induction half-life): 10 μM inhibitor; for α, RIF/Gy (absolute RIF yield): 10 μM inhibitor from 1 h pre-IR, one experiment
Description: To test the validity of the mathematical model further, we perturbed the rates of RIF formation or RIF removal by inhibiting ataxia telangiectasia mutated (ATM) kinase activity with KU55933 (see Materials and Methods).
The cells were fixed for immunofluorescence at specific intervals after exposure to X-rays. We typically refer to “low dose” or “high dose” as doses below or equal to 0.1 Gy or larger than 1 Gy, respectively. For high-LET IR, cells were irradiated at the accelerator beam line of the National Aeronautics and Space Administration Space […] Laboratory at Brookhaven National Laboratory.
We are only briefly describing these procedures. For complete information, see Supplemental Information Materials and Methods. Immunostaining using anti-53BP1 (rabbit polyclonal, Bethyl Laboratories A300-272A) was performed according to previous staining protocol (Costes et al. (2006) Radiat. Res. 165: 505-515). For image acquisition, both live and fixed MCF10A were imaged using a Zeiss plan-apochromat 40× dry objective (N.A. of 0.95) at a fixed exposure time. Nondeconvolved 3D stacks were acquired and used for image analysis (10 slices of 0.5-μm steps for fixed cells and 3 slices of 1-μm step for live cells). All image manipulations, foci analysis, and statistics were done with Matlab (MathWorks, Inc.) and DIPimage (image processing toolbox for Matlab, Delft University of Technology). In contrast to previous intensity-based methods for RIF identification (Bocker and Iliakis (2006) Radiat. Res. 165: 113-124), we used a pattern recognition approach to detect RIF by applying a wavelet morphological filter to enhance RIF peaks in the image while reducing noise from nonspecific signals (Olivo-Marin (2002) Pattern Recognition 35: 1989-1996). Nuclear space occupied by RIF was identified by applying a constant threshold on the wavelet filtered image, and watershed algorithm was used to separate touching RIF. To test if focus size could affect the accuracy of automatic RIF detection, we applied the software on simulated data where foci sizes and densities had different values (i.e., 1 to 40 foci/nucleus were simulated with four distinct sizes: 0.1, 0.4, 1.3, and 2.4 μm^3; FIG. 17). […] Finally, in order to extract the number of “real” RIF from the number of background foci in each scored nucleus, we introduced a background subtraction method that assumes the measured RIF distribution is the result of a convolution between the “real” RIF distribution and the background foci distribution (FIG. 18). For quantification of RIF in live cells, we counted both the cumulative and instantaneous number of RIF manually in 3D time-lapse images. Time interval varied between experiments and was generally set to 10-min interval for the first hour, followed by 30-min interval afterwards. This setting was optimum to minimize phototoxicity and specimen bleaching. Because of the difficulty of software to track individual foci in successive time lapse, analysis had to be done manually in a blind manner on processed images.
In order to interpret RIF kinetics in an unbiased manner, we introduce a simple mathematical model describing RIF formation where one DSB is detected at a rate k leading to one RIF, and one RIF is resolved after repair at a rate k2, assuming both processes are irreversible. This model can be noted as follows:
where α is the number of naked DSB/Gy before formation of RIF and D is the dose delivered to the cell. Alpha (α) should be constant for all doses. Further details are provided in the supporting information materials and methods regarding the way Eq. 1 is fitted.

T1 sequence (Q13315 whole entry, change not shown): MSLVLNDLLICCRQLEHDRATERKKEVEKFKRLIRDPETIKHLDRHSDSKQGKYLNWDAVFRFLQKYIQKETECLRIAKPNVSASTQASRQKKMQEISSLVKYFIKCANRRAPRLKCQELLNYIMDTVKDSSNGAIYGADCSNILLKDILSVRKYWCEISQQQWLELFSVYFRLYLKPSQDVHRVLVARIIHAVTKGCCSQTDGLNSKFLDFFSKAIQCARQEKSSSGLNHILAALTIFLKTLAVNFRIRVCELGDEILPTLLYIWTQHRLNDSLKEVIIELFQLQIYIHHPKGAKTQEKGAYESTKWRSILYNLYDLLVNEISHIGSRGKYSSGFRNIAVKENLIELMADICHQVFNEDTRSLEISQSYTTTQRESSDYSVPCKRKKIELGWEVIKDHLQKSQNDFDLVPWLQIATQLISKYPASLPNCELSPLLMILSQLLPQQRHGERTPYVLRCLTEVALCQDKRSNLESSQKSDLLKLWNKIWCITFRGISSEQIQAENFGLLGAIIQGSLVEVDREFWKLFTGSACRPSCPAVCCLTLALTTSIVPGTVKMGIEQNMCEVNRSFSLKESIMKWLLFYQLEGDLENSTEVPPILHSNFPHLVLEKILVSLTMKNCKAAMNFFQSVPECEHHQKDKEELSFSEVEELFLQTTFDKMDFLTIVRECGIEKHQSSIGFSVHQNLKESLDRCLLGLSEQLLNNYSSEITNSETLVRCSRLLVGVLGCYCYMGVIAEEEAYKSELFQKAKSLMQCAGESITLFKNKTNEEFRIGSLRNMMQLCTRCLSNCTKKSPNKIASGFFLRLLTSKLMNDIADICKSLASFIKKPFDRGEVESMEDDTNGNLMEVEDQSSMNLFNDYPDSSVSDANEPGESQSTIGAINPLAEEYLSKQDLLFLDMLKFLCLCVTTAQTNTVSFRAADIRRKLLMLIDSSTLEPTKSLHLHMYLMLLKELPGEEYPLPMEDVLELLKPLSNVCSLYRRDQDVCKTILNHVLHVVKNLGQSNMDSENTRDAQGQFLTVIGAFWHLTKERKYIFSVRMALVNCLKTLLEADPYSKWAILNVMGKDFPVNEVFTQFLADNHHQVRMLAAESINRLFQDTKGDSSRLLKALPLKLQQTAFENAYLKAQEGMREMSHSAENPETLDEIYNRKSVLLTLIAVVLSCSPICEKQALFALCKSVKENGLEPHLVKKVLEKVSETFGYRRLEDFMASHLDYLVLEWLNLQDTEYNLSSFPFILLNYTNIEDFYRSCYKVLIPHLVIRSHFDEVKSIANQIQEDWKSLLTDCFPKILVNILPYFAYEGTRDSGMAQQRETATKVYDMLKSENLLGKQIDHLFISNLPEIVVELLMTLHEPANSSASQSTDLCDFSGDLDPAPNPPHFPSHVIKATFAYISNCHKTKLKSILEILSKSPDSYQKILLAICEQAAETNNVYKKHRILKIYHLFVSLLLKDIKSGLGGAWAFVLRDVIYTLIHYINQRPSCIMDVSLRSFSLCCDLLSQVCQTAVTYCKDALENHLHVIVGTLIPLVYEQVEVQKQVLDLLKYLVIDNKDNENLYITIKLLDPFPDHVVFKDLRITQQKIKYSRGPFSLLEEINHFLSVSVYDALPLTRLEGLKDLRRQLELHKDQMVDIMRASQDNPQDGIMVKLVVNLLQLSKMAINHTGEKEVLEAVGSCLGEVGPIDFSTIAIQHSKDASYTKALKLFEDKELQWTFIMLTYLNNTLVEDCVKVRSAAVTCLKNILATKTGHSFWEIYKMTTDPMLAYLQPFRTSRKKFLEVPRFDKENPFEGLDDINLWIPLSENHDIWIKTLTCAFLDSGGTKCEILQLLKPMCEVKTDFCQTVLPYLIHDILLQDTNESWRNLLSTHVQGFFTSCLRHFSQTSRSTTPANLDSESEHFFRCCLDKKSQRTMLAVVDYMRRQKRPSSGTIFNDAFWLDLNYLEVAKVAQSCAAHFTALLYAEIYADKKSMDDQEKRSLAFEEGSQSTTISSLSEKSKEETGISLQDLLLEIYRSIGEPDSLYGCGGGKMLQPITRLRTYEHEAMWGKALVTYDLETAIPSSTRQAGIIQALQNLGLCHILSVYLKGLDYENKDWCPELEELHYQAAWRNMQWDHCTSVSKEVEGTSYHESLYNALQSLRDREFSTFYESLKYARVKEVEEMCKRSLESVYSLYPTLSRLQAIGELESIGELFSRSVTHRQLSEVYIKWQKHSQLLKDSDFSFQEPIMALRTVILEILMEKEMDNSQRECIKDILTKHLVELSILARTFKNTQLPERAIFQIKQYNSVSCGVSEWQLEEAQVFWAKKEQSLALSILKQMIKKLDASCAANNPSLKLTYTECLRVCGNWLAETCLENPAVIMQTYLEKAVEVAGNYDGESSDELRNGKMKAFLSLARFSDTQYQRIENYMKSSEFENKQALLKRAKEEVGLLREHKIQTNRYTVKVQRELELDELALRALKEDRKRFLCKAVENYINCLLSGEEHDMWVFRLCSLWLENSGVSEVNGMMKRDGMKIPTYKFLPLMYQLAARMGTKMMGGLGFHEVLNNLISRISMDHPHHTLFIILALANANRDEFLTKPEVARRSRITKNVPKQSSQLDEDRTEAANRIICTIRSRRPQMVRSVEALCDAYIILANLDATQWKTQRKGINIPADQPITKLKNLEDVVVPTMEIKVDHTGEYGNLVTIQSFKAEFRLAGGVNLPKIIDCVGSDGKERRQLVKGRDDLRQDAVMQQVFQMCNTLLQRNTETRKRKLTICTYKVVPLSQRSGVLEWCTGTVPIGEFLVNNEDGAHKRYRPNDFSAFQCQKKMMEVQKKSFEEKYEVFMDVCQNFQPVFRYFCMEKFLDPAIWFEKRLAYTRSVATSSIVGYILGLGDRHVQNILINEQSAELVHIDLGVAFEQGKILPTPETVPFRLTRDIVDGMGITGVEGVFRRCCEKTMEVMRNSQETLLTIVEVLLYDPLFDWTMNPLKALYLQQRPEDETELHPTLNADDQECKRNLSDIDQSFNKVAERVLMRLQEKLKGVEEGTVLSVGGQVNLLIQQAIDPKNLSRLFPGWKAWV

## O=c1cc(-c2cccc3c2Sc2ccccc2S3)oc(N2CCOCC2)c1 [KU55933]
[1]
  phosphorylated p53 at S15: reduction
MCF10A; 0.1 Gy X-rays
  T1/2_1 (RIF induction half-life): 8.3 min
  α, RIF/Gy (absolute RIF yield): 25±17 RIF/Gy
MCF10A; 0.1 Gy X-rays, listed as ATM inhibition
  α, RIF/Gy (absolute RIF yield): 25 RIF/Gy
MCF10A; 0.4 Gy X-rays
  T1/2_1 (RIF induction half-life): 5.9 min
  α, RIF/Gy (absolute RIF yield): 25 RIF/Gy
MCF10A; 1 Gy X-rays
  T1/2_1 (RIF induction half-life): 4.2 min
  α, RIF/Gy (absolute RIF yield): 19 RIF/Gy
MCF10A; 2 Gy X-rays
  T1/2_1 (RIF induction half-life): 2.6 min
  α, RIF/Gy (absolute RIF yield): 12±2 RIF/Gy
MCF10A; 2 Gy X-rays, listed as ATM inhibition
  α, RIF/Gy (absolute RIF yield): 12 RIF/Gy
MCF10A; across all doses
  detection half-lives with versus without ATM inhibition: comparable
MCF10A; after 0.1 Gy of X-rays
  reduction of α versus normal conditions: 3 fold
MCF10A; after 2 Gy of X-rays
  reduction of α versus normal conditions: no significant reduction
MCF10A; at high doses
  RIF resolution with versus without ATM inhibition: significantly slower
MCF10A; under ATM inhibition
  drop of RIF yield between 0.1 and 2 Gy: 2 fold
MCF10A; under ATM inhibition versus normal media
  overall number of RIF: largely diminished
